Measurements from the supplement of paper PMC10307832.

Columns and labels:
Assay in all cases: relative viability (nuclei count vs DMSO), 5 days (fraction); higher = more cells survive
[1] = tested on: Calu-6
Outline: (§1)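 Nuclei were stained with Hoechst during a one-step fixation (final 0.05% Triton X-100, 1% formaldehyde, 1 ug/ml Hoechst) carried out 5 days after dosing, then counted on 4× images. The cells, lung cancer lines in 1536-well plates, had been dosed by pin tool the day after seeding with one drug alone or a fixed anchor-drug dose plus five library-drug doses (not always all listed) in √10 steps. Relative viability is the nuclei count in treated wells divided by that in vehicle wells, and each value is the median of duplicate plates.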

[2] = tested on: RERF-LC-KJ
Outline: as §1

[3] = tested on: NCI-H838
Outline: as §1

[4] = tested on: PC-3 [JPC-3]
Outline: as §1

[5] = tested on: NCI-H520
Outline: as §1

[6] = tested on: NCI-H1651
Outline: as §1

[7] = tested on: A549
Outline: as §1

[8] = tested on: NCI-H650
Outline: as §1

[9] = tested on: NCI-H1944
Outline: as §1

[10] = tested on: IA-LM
Outline: as §1

[11] = tested on: EBC-1
Outline: as §1

[12] = tested on: NCI-H1299
Outline: as §1

[13] = tested on: NCI-H1703
Outline: as §1

SMILES: COc1cc2nccc(Oc3ccc(NC(=O)Nc4cc(C)on4)c(Cl)c3)c2cc1OC [Tivozanib] + CS(=O)(=O)CCNCc1ccc(-c2ccc3ncnc(Nc4ccc(OCc5cccc(F)c5)c(Cl)c4)c3c2)o1 [Lapatinib] (partner 2 µM)
- relative viability ([1]; first compound 0.005 µM): 1.01
- relative viability ([1]; first compound 0.01581 µM): 1.08
- relative viability ([1]; first compound 0.05 µM): 1.07
- relative viability ([1]; first compound 0.1581 µM): 1.13
- relative viability ([1]; first compound 0.5 µM): 1.14
- relative viability ([2]; first compound 0.005 µM): 0.816
- relative viability ([2]; first compound 0.01581 µM): 0.843
- relative viability ([2]; first compound 0.05 µM): 0.902
- relative viability ([2]; first compound 0.1581 µM): 0.819
- relative viability ([2]; first compound 0.5 µM): 0.834
- relative viability ([3]; first compound 0.005 µM): 0.933
- relative viability ([3]; first compound 0.01581 µM): 0.913
- relative viability ([3]; first compound 0.05 µM): 1.01
- relative viability ([3]; first compound 0.5 µM): 0.87
- relative viability ([4]; first compound 0.005 µM): 0.429
- relative viability ([4]; first compound 0.01581 µM): 0.453
- relative viability ([4]; first compound 0.05 µM): 0.509
- relative viability ([4]; first compound 0.1581 µM): 0.378
- relative viability ([4]; first compound 0.5 µM): 0.433
- relative viability ([5]; first compound 0.005 µM): 0.763
- relative viability ([5]; first compound 0.01581 µM): 0.912
- relative viability ([5]; first compound 0.05 µM): 0.87
- relative viability ([5]; first compound 0.1581 µM): 0.82
- relative viability ([5]; first compound 0.5 µM): 0.757
- relative viability ([6]; first compound 0.005 µM): 0.744
- relative viability ([6]; first compound 0.01581 µM): 0.864
- relative viability ([6]; first compound 0.05 µM): 0.863
- relative viability ([6]; first compound 0.1581 µM): 0.653
- relative viability ([6]; first compound 0.5 µM): 0.634
- relative viability ([7]; first compound 0.005 µM): 1.09
- relative viability ([7]; first compound 0.01581 µM): 0.987
- relative viability ([7]; first compound 0.05 µM): 0.944
- relative viability ([7]; first compound 0.1581 µM): 1.03
- relative viability ([7]; first compound 0.5 µM): 0.913
- relative viability ([8]; first compound 0.005 µM): 0.759
- relative viability ([8]; first compound 0.01581 µM): 0.807
- relative viability ([8]; first compound 0.05 µM): 0.844
- relative viability ([8]; first compound 0.1581 µM): 0.415
- relative viability ([8]; first compound 0.5 µM): 0.535
- relative viability ([9]; first compound 0.005 µM): 0.826
- relative viability ([9]; first compound 0.01581 µM): 0.888
- relative viability ([9]; first compound 0.05 µM): 0.758
- relative viability ([9]; first compound 0.1581 µM): 0.666
- relative viability ([9]; first compound 0.5 µM): 0.841
- relative viability ([10]; first compound 0.01581 µM): 0.564
- relative viability ([10]; first compound 0.05 µM): 0.771
- relative viability ([10]; first compound 0.1581 µM): 0.582
- relative viability ([10]; first compound 0.5 µM): 0.56
- relative viability ([11]; first compound 0.005 µM): 0.231
- relative viability ([11]; first compound 0.01581 µM): 0.216
- relative viability ([11]; first compound 0.05 µM): 0.172
- relative viability ([11]; first compound 0.1581 µM): 0.209
- relative viability ([11]; first compound 0.5 µM): 0.204
- relative viability ([12]; first compound 0.005 µM): 0.921
- relative viability ([12]; first compound 0.01581 µM): 1.03
- relative viability ([12]; first compound 0.05 µM): 0.933
- relative viability ([12]; first compound 0.1581 µM): 0.936
- relative viability ([12]; first compound 0.5 µM): 0.917
- relative viability ([13]; first compound 0.005 µM): 0.44
- relative viability ([13]; first compound 0.01581 µM): 0.255
- relative viability ([13]; first compound 0.05 µM): 0.271
- relative viability ([13]; first compound 0.1581 µM): 0.305
- relative viability ([13]; first compound 0.5 µM): 0.259

SMILES: COc1cc2nccc(Oc3ccc(NC(=O)Nc4cc(C)on4)c(Cl)c3)c2cc1OC [Tivozanib] + CS(=O)(=O)N1CCN(Cc2cc3nc(-c4cccc5[nH]ncc45)nc(N4CCOCC4)c3s2)CC1 [Pictilisib] (partner 1 µM)
- relative viability ([1]; first compound 0.005 µM): 0.969
- relative viability ([1]; first compound 0.01581 µM): 0.979
- relative viability ([1]; first compound 0.05 µM): 0.842
- relative viability ([1]; first compound 0.1581 µM): 0.798
- relative viability ([1]; first compound 0.5 µM): 0.823
- relative viability ([2]; first compound 0.005 µM): 0.509
- relative viability ([2]; first compound 0.01581 µM): 0.471
- relative viability ([2]; first compound 0.05 µM): 0.533
- relative viability ([2]; first compound 0.1581 µM): 0.356
- relative viability ([2]; first compound 0.5 µM): 0.586
- relative viability ([3]; first compound 0.005 µM): 0.443
- relative viability ([3]; first compound 0.01581 µM): 0.498
- relative viability ([3]; first compound 0.05 µM): 0.453
- relative viability ([3]; first compound 0.5 µM): 0.501
- relative viability ([4]; first compound 0.005 µM): 0.705
- relative viability ([4]; first compound 0.01581 µM): 0.698
- relative viability ([4]; first compound 0.05 µM): 0.757
- relative viability ([4]; first compound 0.1581 µM): 0.604
- relative viability ([4]; first compound 0.5 µM): 0.706
- relative viability ([5]; first compound 0.005 µM): 0.263
- relative viability ([5]; first compound 0.01581 µM): 0.256
- relative viability ([5]; first compound 0.05 µM): 0.295
- relative viability ([5]; first compound 0.1581 µM): 0.242
- relative viability ([5]; first compound 0.5 µM): 0.302
- relative viability ([6]; first compound 0.005 µM): 0.464
- relative viability ([6]; first compound 0.01581 µM): 0.581
- relative viability ([6]; first compound 0.05 µM): 0.613
- relative viability ([6]; first compound 0.1581 µM): 0.484
- relative viability ([6]; first compound 0.5 µM): 0.783
- relative viability ([7]; first compound 0.005 µM): 0.49
- relative viability ([7]; first compound 0.01581 µM): 0.456
- relative viability ([7]; first compound 0.05 µM): 0.65
- relative viability ([7]; first compound 0.1581 µM): 0.451
- relative viability ([7]; first compound 0.5 µM): 0.571
- relative viability ([8]; first compound 0.005 µM): 0.674
- relative viability ([8]; first compound 0.01581 µM): 0.866
- relative viability ([8]; first compound 0.05 µM): 0.771
- relative viability ([8]; first compound 0.1581 µM): 0.78
- relative viability ([8]; first compound 0.5 µM): 0.77
- relative viability ([9]; first compound 0.005 µM): 0.327
- relative viability ([9]; first compound 0.01581 µM): 0.365
- relative viability ([9]; first compound 0.05 µM): 0.356
- relative viability ([9]; first compound 0.1581 µM): 0.289
- relative viability ([9]; first compound 0.5 µM): 0.307
- relative viability ([10]; first compound 0.005 µM): 0.308
- relative viability ([10]; first compound 0.01581 µM): 0.366
- relative viability ([10]; first compound 0.05 µM): 0.321
- relative viability ([10]; first compound 0.1581 µM): 0.316
- relative viability ([10]; first compound 0.5 µM): 0.574
- relative viability ([11]; first compound 0.005 µM): 0.367
- relative viability ([11]; first compound 0.01581 µM): 0.362
- relative viability ([11]; first compound 0.05 µM): 0.378
- relative viability ([11]; first compound 0.1581 µM): 0.25
- relative viability ([11]; first compound 0.5 µM): 0.401
- relative viability ([12]; first compound 0.005 µM): 0.687
- relative viability ([12]; first compound 0.01581 µM): 0.62
- relative viability ([12]; first compound 0.05 µM): 0.797
- relative viability ([12]; first compound 0.1581 µM): 0.789
- relative viability ([12]; first compound 0.5 µM): 0.615
- relative viability ([13]; first compound 0.005 µM): 0.161
- relative viability ([13]; first compound 0.01581 µM): 0.236
- relative viability ([13]; first compound 0.05 µM): 0.253
- relative viability ([13]; first compound 0.1581 µM): 0.181
- relative viability ([13]; first compound 0.5 µM): 0.213
